Assays:
[1] = test system: carrageenan-induced pedal edema; assay: Carrageenan-induced pedal edema in Lewis rats; type: in vivo; details: Rattus norvegicus, 3 h; oral; three hours after carrageenan; read-out: dose with significant inhibition of pedal edema
Method: Carrageenan-induced pedal edema models which were animal model of chronic articular rheumatism were prepared as follows using male Lewis rats [purchased from Seac-Yoshitomi when five weeks age (body weight: about 130 g) followed by subjecting to a preliminary breeding for one week at our end] and the test drugs were evaluated.
To the rats which were fasted since 18 hours before initiation of the experiment was orally administered with 10 ml/kg of GM which was prepared with distilled water (manufactured by Otsuka Pharmaceutical) to make 10 and 100 mg/ml.
After 0.5 hour from administration of the test drug, 100 μl/rat of 1% suspension of carrageenan (manufactured by Wako) in a physiologically saline solution (manufactured by Otsuka Pharmaceutical) was injected to right paw to induce pedal edema. After three hours from the carrageenan injection, volume of right paw of the rat was measured by a pedal volume measuring device (manufactured by UGO BASILE). Incidentally, the measured value was expressed by calculating the increasing rate from the right paw volume of each rat measured before the carrageenan administration.

topoisomerase II = molecular target: T1, topoisomerase II (Homo sapiens, UniProt P11388); assay: Topoisomerase II inhibition (pBR322 relaxation); type: biochemical; design: key to Inhibiting Activity: -: a complete change from a supercoiled type to a relaxation type; +: a change in a medium degree; ++: most of supercoiled type remained; +++: there was no decrease in a supercoiled type at all
T1 construct: purchased TopoGEN
Method: (1) One μl of 0.25 μg/μl pBR322 DNA (manufactured by Takara Shuzo) was added to a mixture of 2 μl of topoisomerase II (manufactured by TopoGEN, 2 units/μl), 2 μl of a buffer with a ten-fold diluted concentration [0.5M Tris-HCl (pH 8.0), 1.2M KCl, 0.1M MgCl2, 5 mM adenosine triphosphate and 5 mM dithiothreitol], 2 μl of 0.1% bovine serum albumin (manufactured by Takara Shuzo), 11 μl of distilled water and 2 μl of distilled water (a control) or a sample (50, 100, 200, 500, 1000 or 2500 μM of GM) and made to react at 37° C. After the reaction for 30 minutes, the reaction was stopped by adding 2 μl aqueous solution of 1% sodium dodecylsulfate, 50% glycerol and 0.02% Bromophenol Blue.
The above reaction solution (20 μl) was applied to 1% agarose gel prepared from agarose L03 (manufactured by Takara Shuzo) and TAE buffer [40 mM Tris, 5 mM sodium acetate and 1 mM disodium ethylenediaminetetraacetate (EDTA); adjusted to pH 7.8 with acetic acid] and electrophoresis was conducted in the TAE buffer. After the electrophoresis, the gel was dipped in an aqueous solution of 1 μg/ml ethidium bromide and irradiated with ultraviolet ray to observe the electrophoretic pattern of DNA.

tumor necrosis factor-α = assay: TNF-α in serum of LPS endotoxin-shock mice; type: in vivo, mouse (CDF1); details: for TNF in serum (Mean ± SE): n=5, control 2.32 ± 0.15
Method: (1) LPS (lipopolysaccharide manufactured by Sigma) was intraperitoneally injected (10 μg/mouse) to female CDF1 mice of eight weeks age (purchased from Nippon SLC at seven weeks age with bodyweight of 20 g followed by subjecting a preliminary breeding for one week at our end) and endotoxin-shock models were prepared. GM was orally administered at the dose of 100 and 1000 mg/kg at thirty minutes before administration of LPS. After one hour from the administration of LPS, blood was collected from the mice, serum was separated and amount of the tumor necrosis factor-α in the serum was measured by a commercially available ELISA kit (manufactured by Endogen).

NIH 3T3/E7-2 = assay: Colony formation of HPV16 E7-transformed NIH 3T3/E7-2 cells; type: cell-based
Method: (1) Transformation to Escherichia coli HB101 was conducted by control plasmid pcD2-Y expressing G418-resisting gene [Mol. Cell. Biol., volume 7, pages 2745-2752 (1987)] and plasmid pcD2-16E7 which was capable of expressing both HPV 16 type E7 and G418-resisting gene [Jpn. J. Cancer Res., volume 82, pages 1340-1343 (1991)], then incubation was conducted in an L-broth medium and plasmid was extracted from the collected cells and purified by a cesium chloride density gradient ultracentrifugation to give vector plasmid for introduction of gene.
The purified plasmid (10 μg) was introduced into NIH 3T3 cells using a cationic liposome (TransIT LT-1, manufactured by Takara Shuzo), the cells were selected at 37° C. under the condition of 5% CO2 for two weeks in a Dulbecco-modified Eagle's medium containing 10% calf serum which contained 0.4 mg/ml of G418 (Gibco) and the resulting colonies were cloned to establish each nine strains of NIH 3T3 cells into which control vector was introdcd and NIH 3T3 cells which was cancerated with HPV 16 type E7.
The cells strains into which E7 was introduced were named NIH 3T3/E7-1, NIH 3T3/E7-2, NIH 3T3/E7-3, NIH 3T3/E7-4, NIH 3T3/E7-5, NIH 3T3/E7-6, NIH 3T3/E7-7, NIH 3T3/E7-8 and NIH 3T3/E7-9. […]
A part of the suspension was taken out and cell density was counted by a Neubauer's hemocytometer. […]

p24 antigen = p24 antigen in culture supernatant of CEM-3B cells; type: cell-based, HIV-1IIIB; details: one day
Method: (2) Concentration of p24 antigen contained in the supernatant liquid in the culture after incubation of the CEM-3B cells mentioned in Example 15-(1) for one day was measured.

T1 sequence (P11388 whole entry): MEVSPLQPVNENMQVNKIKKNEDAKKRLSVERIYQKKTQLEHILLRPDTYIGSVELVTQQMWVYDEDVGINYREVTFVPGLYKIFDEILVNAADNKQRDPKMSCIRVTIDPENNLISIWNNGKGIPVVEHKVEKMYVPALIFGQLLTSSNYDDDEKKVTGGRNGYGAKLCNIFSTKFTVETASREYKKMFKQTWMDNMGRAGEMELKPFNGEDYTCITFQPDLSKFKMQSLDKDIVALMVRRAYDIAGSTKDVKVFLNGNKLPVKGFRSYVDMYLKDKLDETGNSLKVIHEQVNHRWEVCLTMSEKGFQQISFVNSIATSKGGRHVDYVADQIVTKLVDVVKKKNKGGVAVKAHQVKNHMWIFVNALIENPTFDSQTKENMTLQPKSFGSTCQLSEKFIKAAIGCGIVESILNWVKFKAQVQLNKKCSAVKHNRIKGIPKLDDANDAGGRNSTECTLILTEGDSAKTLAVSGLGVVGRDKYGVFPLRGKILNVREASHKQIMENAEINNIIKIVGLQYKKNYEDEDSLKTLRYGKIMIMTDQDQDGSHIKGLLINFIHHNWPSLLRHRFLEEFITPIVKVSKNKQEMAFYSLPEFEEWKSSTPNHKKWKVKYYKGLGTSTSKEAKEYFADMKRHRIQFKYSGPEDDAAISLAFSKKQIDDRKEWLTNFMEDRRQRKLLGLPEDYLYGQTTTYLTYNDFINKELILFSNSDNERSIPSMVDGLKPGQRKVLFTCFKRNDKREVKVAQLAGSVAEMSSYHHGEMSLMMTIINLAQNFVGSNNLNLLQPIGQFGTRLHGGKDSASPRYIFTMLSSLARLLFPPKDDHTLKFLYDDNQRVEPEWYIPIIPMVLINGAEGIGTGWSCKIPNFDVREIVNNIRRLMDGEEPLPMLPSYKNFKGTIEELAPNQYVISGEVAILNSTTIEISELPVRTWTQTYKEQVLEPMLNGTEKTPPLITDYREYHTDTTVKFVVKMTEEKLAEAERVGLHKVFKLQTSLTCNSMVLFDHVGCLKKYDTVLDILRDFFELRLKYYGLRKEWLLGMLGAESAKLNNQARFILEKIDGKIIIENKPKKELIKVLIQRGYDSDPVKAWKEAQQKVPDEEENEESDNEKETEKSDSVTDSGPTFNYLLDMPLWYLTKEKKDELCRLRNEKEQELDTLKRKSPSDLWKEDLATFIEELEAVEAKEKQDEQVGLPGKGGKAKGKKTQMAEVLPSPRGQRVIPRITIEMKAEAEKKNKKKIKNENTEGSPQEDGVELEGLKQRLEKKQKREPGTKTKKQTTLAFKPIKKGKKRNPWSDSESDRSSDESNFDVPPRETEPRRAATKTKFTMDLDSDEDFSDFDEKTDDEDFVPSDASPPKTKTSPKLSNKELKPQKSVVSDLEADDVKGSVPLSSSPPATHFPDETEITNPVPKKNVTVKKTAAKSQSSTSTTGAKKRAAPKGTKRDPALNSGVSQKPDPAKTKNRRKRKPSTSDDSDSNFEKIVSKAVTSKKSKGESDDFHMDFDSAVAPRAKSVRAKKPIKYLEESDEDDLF

N[C@@H](CCC(=O)N[C@@H](CSC1C=C(O)C(=O)C1)C(=O)NCC(=O)O)C(=O)O (some centres unmarked) [GM, 2-hydroxy-4-glutathion-S-yl-2-cyclopenten-1-one]
minimal effective dose [1]: ≥ 100 mg/kg
concentration at which change of DNA to relaxation type was partially or completely inhibited (topoisomerase II): ≥ 10 µM
Inhibiting Activity (topoisomerase II; 5 μM): -
Inhibiting Activity (topoisomerase II; 10 μM): +
Inhibiting Activity (topoisomerase II; 20 μM): ++
Inhibiting Activity (topoisomerase II; 50 μM): ++
Inhibiting Activity (topoisomerase II; 100 μM): +++
Inhibiting Activity (topoisomerase II; 250 μM): +++
TNF in serum (Mean ± SE) (tumor necrosis factor-α; 100 mg/kg oral): 2.22 ± 0.26 ng/mL
inhibition of production of tumor necrosis factor (in words) (tumor necrosis factor-α; 1000 mg/kg oral): significantly inhibited
TNF in serum (Mean ± SE) (tumor necrosis factor-α; 1000 mg/kg oral): 1.16 ± 0.26 ng/mL
sensitivity of E7-introduced cells compared with control cells (in words) (NIH 3T3/E7-2; 5 μM): high sensitivity to GM as compared with the control cells
Numbers of Colonies (Mean Value ± SD) (NIH 3T3/E7-2; 5 μM GM, nine days, control 67.3 ± 3.2): 13.3 ± 3.2
p24 concentration in supernatant (p24 antigen): the p24 concentration decreased depending upon the concentration of the added GM
